PubChem BioAssay AID248 (DTP/NCI, 2004)
Toxic doses and inconclusive results are not listed. Rule as the data show it: active = T/C of 150% or more; inactive = T/C below 125%.

Test system: L1210 leukemia ip in BDF1 mice, survival T/C
Assay: NCI In Vivo Anticancer Drug Screen. Data for tumor model L1210 Leukemia (intraperitoneal) in B6D2F1 (BDF1) mice
Conditions: endpoint: mean survival time, higher = longer survival
Procedure, shortened: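 Transplantable tumor model; survival measured in treated vs vehicle control mice. Value = treated/control.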

[1] = dose: 100.0 mg/kg/injection, schedule: Q01DX001 (ip), vehicle: carboxymethylcellulose (CMC)
[2] = dose: 200.0 mg/kg/injection, schedule: Q01DX001 (ip), vehicle: carboxymethylcellulose (CMC)
[3] = dose: 400.0 mg/kg/injection, schedule: Q01DX001 (ip), vehicle: carboxymethylcellulose (CMC)
[4] = dose: 3.12 mg/kg/injection, schedule: Q01DX009 (ip), vehicle: saline
[5] = dose: 12.5 mg/kg/injection, schedule: Q01DX009 (ip), vehicle: saline
[6] = dose: 25.0 mg/kg/injection, schedule: Q04DX003 (ip), vehicle: saline
[7] = dose: 50.0 mg/kg/injection, schedule: Q04DX003 (ip), vehicle: saline
[8] = dose: 100.0 mg/kg/injection, schedule: Q04DX003 (ip), vehicle: saline
[9] = dose: 200.0 mg/kg/injection, schedule: Q04DX003 (ip), vehicle: saline
[10] = dose: 100.0 mg/kg/injection, schedule: Q04DX002 (ip), vehicle: Klucel (hydroxypropylcellulose) (HPC)
[11] = dose: 200.0 mg/kg/injection, schedule: Q04DX002 (ip), vehicle: Klucel (hydroxypropylcellulose) (HPC)
[12] = dose: 400.0 mg/kg/injection, schedule: Q04DX002 (ip), vehicle: Klucel (hydroxypropylcellulose) (HPC)
[13] = dose: 100.0 mg/kg/injection, schedule: Q01DX009 (ip), vehicle: saline with Tween-80
[14] = dose: 200.0 mg/kg/injection, schedule: Q01DX009 (ip), vehicle: saline with Tween-80
[15] = dose: 400.0 mg/kg/injection, schedule: Q01DX009 (ip), vehicle: saline with Tween-80
[16] = dose: 50.0 mg/kg/injection, schedule: Q01DX009 (ip), vehicle: Klucel (hydroxypropylcellulose) (HPC)
[17] = dose: 100.0 mg/kg/injection, schedule: Q04DX003 (ip), vehicle: Klucel (hydroxypropylcellulose) (HPC)
[18] = dose: 200.0 mg/kg/injection, schedule: Q04DX003 (ip), vehicle: Klucel (hydroxypropylcellulose) (HPC)
[19] = dose: 6.25 mg/kg/injection, schedule: Q01DX009 (ip), vehicle: saline
[20] = dose: 25.0 mg/kg/injection, schedule: Q01DX009 (ip), vehicle: saline
[21] = dose: 50.0 mg/kg/injection, schedule: Q01DX009 (ip), vehicle: saline with Tween-80
[22] = dose: 100.0 mg/kg/injection, schedule: Q04DX003 (ip), vehicle: saline with Tween-80
[23] = dose: 200.0 mg/kg/injection, schedule: Q04DX003 (ip), vehicle: saline with Tween-80
[24] = dose: 400.0 mg/kg/injection, schedule: Q04DX003 (ip), vehicle: saline with Tween-80

Measured: T/C

Cc1ccc(Nc2cccc3c2C(=O)c2c(Nc4ccc(C)cc4C)cccc2C3=O)c(C)c1
inactive: dose: 100.0 mg/kg/injection, schedule: Q04DX002 (ip), vehicle: saline 97 % of control | dose: 200.0 mg/kg/injection, schedule: Q04DX002 (ip), vehicle: saline 117 % of control | dose: 400.0 mg/kg/injection, schedule: Q04DX002 (ip), vehicle: saline 100 % of control

CCOC(=O)c1c(C)c2c(n1C)CCC(C#N)C2=O (stereo not given)
inactive: [1] 103 % of control | [2] 97 % of control | [3] 98 % of control

COc1ccc(CN2CCCN(Cc3ccc(OC)cc3)C2c2ccncc2C)cc1
inactive: dose: 100.0 mg/kg/injection, schedule: Q01DX001 (ip), vehicle: acetone 96 % of control | dose: 200.0 mg/kg/injection, schedule: Q01DX001 (ip), vehicle: acetone 105 % of control | dose: 400.0 mg/kg/injection, schedule: Q01DX001 (ip), vehicle: acetone 96 % of control

FC(F)(F)c1ccc2c(c1)N(CCCN1CCN(CCCl)CC1)c1ccccc1S2
inactive: dose: 0.78 mg/kg/injection, schedule: Q01DX009 (ip), vehicle: saline 101 % of control | dose: 1.56 mg/kg/injection, schedule: Q01DX009 (ip), vehicle: saline 107 % of control | [4] 107 % of control | dose: 6.25 mg/kg/injection, schedule: Q04DX003 (ip), vehicle: saline 96 % of control | [5] 110 % of control | dose: 12.5 mg/kg/injection, schedule: Q04DX003 (ip), vehicle: saline 97 % of control | [6] 110 % of control | [7] 89 % of control

CC1C(C)(C)P(N)(=O)C1(C)C (stereo not given)
inactive: [8] 100 % of control | [9] 103 % of control | dose: 400.0 mg/kg/injection, schedule: Q04DX003 (ip), vehicle: saline 97 % of control

CCCCCC(N)C(=O)O (stereo not given)
inactive: dose: 12.5 mg/kg/injection, schedule: Q04DX002 (ip), vehicle: saline 104 % of control | dose: 25.0 mg/kg/injection, schedule: Q04DX002 (ip), vehicle: saline 100 % of control | dose: 50.0 mg/kg/injection, schedule: Q04DX002 (ip), vehicle: saline 107 % of control

O=C(COc1ccc(Cl)cc1Cl)Nc1c(Cl)cc(Cl)cc1Cl
inactive: [10] 99 % of control | [11] 108 % of control | [12] 86 % of control

Cc1cc(Cl)ccc1NS(=O)(=O)c1cccc([N+](=O)[O-])c1
inactive: [13] 90 % of control | [14] 90 % of control | [15] 87 % of control

CNC(=O)NNC(=O)CNC(=O)Nc1cccc(C(F)(F)F)c1
inactive: dose: 12.5 mg/kg/injection, schedule: Q01DX009 (ip), vehicle: Klucel (hydroxypropylcellulose) (HPC) 94 % of control | dose: 25.0 mg/kg/injection, schedule: Q01DX009 (ip), vehicle: Klucel (hydroxypropylcellulose) (HPC) 102 % of control | [16] 98 % of control

O=c1nc(NO)ccn1C1CCCO1 (stereo not given)
inactive: [1] 96 % of control | [2] 100 % of control | [3] 96 % of control

O=C1c2cccc3c([N+](=O)[O-])ccc(c23)C(=O)N1NCCO
inactive: dose: 100.0 mg/kg/injection, schedule: Q04DX003 (ip), vehicle: carboxymethylcellulose (CMC) 102 % of control | dose: 200.0 mg/kg/injection, schedule: Q04DX003 (ip), vehicle: carboxymethylcellulose (CMC) 100 % of control

O=c1oc2c(CN3CCCCC3)c(O)ccc2c2c1CCCC2
inactive: [1] 93 % of control | [2] 96 % of control | [3] 93 % of control

CC(C)(C)C1=CC(C(C)(C)C)CCC1=O (stereo not given)
inactive: dose: 100.0 mg/kg/injection, schedule: Q04DX003 (ip), vehicle: acetone 98 % of control | dose: 200.0 mg/kg/injection, schedule: Q04DX003 (ip), vehicle: acetone 102 % of control | dose: 400.0 mg/kg/injection, schedule: Q04DX003 (ip), vehicle: acetone 92 % of control

CC(=O)Nc1ccc(NC(=O)NCCCl)cc1
inactive: [16] 96 % of control | dose: 100.0 mg/kg/injection, schedule: Q01DX009 (ip), vehicle: Klucel (hydroxypropylcellulose) (HPC) 99 % of control | [17] 103 % of control | dose: 200.0 mg/kg/injection, schedule: Q01DX009 (ip), vehicle: Klucel (hydroxypropylcellulose) (HPC) 89 % of control | [18] 100 % of control

CNCCCC1c2ccccc2C=Cc2ccccc21
inactive: [4] 100 % of control | [19] 96 % of control | [5] 101 % of control | [20] 100 % of control | [6] 90 % of control | [7] 101 % of control

CC1(C)/C(=N\N=C2/C3CCC(C3)C2(C)C)C2CCC1C2
inactive: [5] 105 % of control | [20] 100 % of control | [21] 106 % of control | dose: 50.0 mg/kg/injection, schedule: Q01DX009 (ip), vehicle: saline 109 % of control | [8] 109 % of control | [9] 108 % of control

COc1ccc(C(c2ccccc2)C(CO)CO)cc1 (stereo not given)
inactive: dose: 75.0 mg/kg/injection, schedule: Q04DX002 (ip), vehicle: Klucel (hydroxypropylcellulose) (HPC) 90 % of control | dose: 150.0 mg/kg/injection, schedule: Q04DX002 (ip), vehicle: Klucel (hydroxypropylcellulose) (HPC) 93 % of control | dose: 300.0 mg/kg/injection, schedule: Q04DX002 (ip), vehicle: Klucel (hydroxypropylcellulose) (HPC) 87 % of control

c1ccc(C2=NCN=C2c2ccccc2)cc1
inactive: [17] 99 % of control | [18] 101 % of control | dose: 400.0 mg/kg/injection, schedule: Q04DX003 (ip), vehicle: Klucel (hydroxypropylcellulose) (HPC) 92 % of control

[Br][Pb]([c]1ccccc1)([c]1ccccc1)[c]1ccccc1
inactive: dose: 1.5 mg/kg/injection, schedule: Q01DX009 (ip), vehicle: saline 103 % of control | dose: 1.56 mg/kg/injection, schedule: Q04DX003 (ip), vehicle: acetone 93 % of control | [4] 100 % of control | dose: 3.12 mg/kg/injection, schedule: Q04DX003 (ip), vehicle: acetone 91 % of control | [19] 92 % of control | dose: 6.25 mg/kg/injection, schedule: Q04DX003 (ip), vehicle: acetone 88 % of control

O=P(O)(CP(=O)(c1ccccc1)c1ccccc1)c1ccccc1
inactive: [10] 94 % of control | [11] 94 % of control

COC1=C2CCCCC2=[N+]2CCc3ccccc3C2C1 (stereo not given)
inactive: dose: 100.0 mg/kg/injection, schedule: Q01DX001 (ip), vehicle: Klucel (hydroxypropylcellulose) (HPC) 93 % of control

C=CCCCCCCCCC(=O)Cl
inactive: [13] 89 % of control | [22] 97 % of control | [14] 88 % of control | [23] 101 % of control | [15] 98 % of control | [24] 95 % of control

O=C(Nc1cccc(C(F)(F)F)c1)c1ccc(F)cc1
inactive: [10] 91 % of control | [11] 102 % of control | [12] 88 % of control

Cc1cc(N=Nc2ccccc2)c2cccnc2c1N
inactive: dose: 50.0 mg/kg/injection, schedule: Q04DX003 (ip), vehicle: DMSO 91 % of control | dose: 100.0 mg/kg/injection, schedule: Q04DX003 (ip), vehicle: DMSO 97 % of control

Nc1n[nH]c(=S)n1-c1ccc(Cl)cc1
inactive: [22] 88 % of control | [23] 93 % of control | [24] 93 % of control

Cc1ccc2nc3nc(-c4ccccc4)c(-c4ccccc4)nc3nc2c1
inactive: dose: 75.0 mg/kg/injection, schedule: Q01DX001 (ip), vehicle: other 93 % of control | dose: 150.0 mg/kg/injection, schedule: Q01DX001 (ip), vehicle: other 94 % of control | dose: 300.0 mg/kg/injection, schedule: Q01DX001 (ip), vehicle: other 89 % of control

Cc1c(C(=O)O)cc([N+](=O)[O-])cc1[N+](=O)[O-]
inactive: [21] 103 % of control | [13] 97 % of control | [14] 93 % of control
